According to patent US20130225629A1, “TARGETING PI3K/MTOR SIGNALLING AND NEUTROPHIL RECRUITMENT FOR TREATMENT OF ENTERITIS” (THE UNIVERSITY OF NORTH CAROLINA AT CHAPEL HILL, priority 2012, published 2013):

What was measured:
Gr-1+/CD45+ cells = assay: Flow cytometry of peripheral blood neutrophils (Gr-1+/CD45+); format: in vivo; settings: rapamycin-treated infected vs untreated infected mice
Experimental: To assess blood neutrophils, mice were sacrificed and peripheral blood was drawn and mixed with an anticoagulant (20 μL 96 mmol/L EDTA). White blood cells were collected following erythrocyte lysis. The cells were then incubated with antibodies against CD45 (PE conjugated), Gr-1 (fluorescein isothiocyanate conjugated) (eBiosciences, San Diego, Calif., United States of America). To analyze the change of CD4^+ cells after antibody-mediated depletion, freshly isolated splenocytes and MLNs from C jejuni-infected mice were then incubated with PE-conjugated antibodies against CD4 (eBiosciences, San Diego, Calif., United States of America). The cells were analyzed on a Cyan flow cytometer (Beckman Coulter, Inc., Brea, Calif., United States of America) to determine the proportion of total immune cells, neutrophils, or CD4^+ T cells, respectively. The results were then analyzed on Summit software (Beckman Coulter, Inc., Brea, Calif., United States of America).

Cxcl2 mRNA = assay: Real-time RT-PCR of colonic Cxcl2 mRNA; format: in vivo, mice
Experimental: (§1) Total RNA from colonic tissue was extracted using TRIzol® kit (Invitrogen, Carlsbad, Calif., United States of America). Complementary DNA was prepared using M-MLV (Invitrogen). Messenger RNA levels of proinflammatory genes were determined using SYBR® Green PCR Master Mix (Applied Biosystems, Carlsbad, Calif., United States of America) on an ABI 7900HT Fast Real-Time PCR System and normalized to Gapdh. The polymerase chain reactions were performed according to the manufacturer's recommendation. The following gene primers were used: Gapdh_forward: 5′-[…]-3′ (SEQ ID NO: 2), Gapdh_reverse: 5′-[…]-3′ (SEQ ID NO: 3), II-1_forward: 5′-[…]-3′ (SEQ ID NO: 4), II-1_reverse: 5′-[…]-3′ (SEQ ID NO: 5), Cxcl2_forward: 5′-[…]-3′ (SEQ ID NO: 6), Cxcl2_reverse: 5′-[…]-3′ (SEQ ID NO: 7), II-17a_forward: 5′-[…]-3′ (SEQ ID NO: 8), II-17a_reverse: 5′-[…]-3′ (SEQ ID NO: 9), II12p40_forward: […] (SEQ ID NO: 10), II12p40_reverse: […] (SEQ ID NO: 11), Tnf forward: […] (SEQ ID NO: 12), Tnf reverse: […] (SEQ ID NO: 13).
(§2) Total RNA from intestinal tissues was extracted using TRIzol® kit (Invitrogen, Carlsbad, Calif., United States of America) following the manufacture's guide. cDNA was reverse-transcribed using M-MLV (Invitrogen). Proinflammatory 111β, Cxcl2, II17a and Tnfα mRNA expression levels were measured using SYBR® Green PCR Master mix (Applied Biosystems, Carlsbad, Calif., United States of America) on an ABI 7900HT Fast Real-Time PCR System and normalized to Gapdh. The PCR primers used were reported previously. (Sun et al., 2012). The PCR reactions were performed for 40 cycles according to the manufacturer's recommendation, and RNA fold changes were calculated using the ΔΔct method.

II1β mRNA = assay: Real-time RT-PCR of colonic II1β mRNA; format: in vivo, mice
Experimental: as §1, §2

IL-17 = assay: ELISA of IL-17 secreted from cultured colon explants and MLN; format: in vivo; settings: rapamycin-treated infected mice vs control
Experimental: (§3) Colonic tissue, MLNs, and spleen were weighed, minced with scissors, and incubated in 1 mL 3% fetal bovine serum and 1% antibiotics RPMI medium in a 24-well plate. After 18-hour incubation, medium was collected and centrifuged at 7000 rpm for 5 minutes. Supernatant was collected and stored at −80° C. IL-1β and IL-17 (A) concentrations were assessed by enzyme-linked immunosorbent assay kits (R&D Systems, Minneapolis, Minn., United States of America) following the manufacturer's specification. The IL-17 enzyme-linked immunosorbent assay has no cross-reactivity to IL-17B, C, D, E, and F.

Tnfα mRNA = assay: Real-time RT-PCR of colonic Tnfα mRNA; format: in vivo, mice; settings: rapamycin treatment
Experimental: as §1

C. jejuni = format: in vivo, mice; settings: colon, rapamycin treatment vs infected untreated mice
Text: All animal protocols were approved by the Institutional Animal Care and Use Committee of the University of North Carolina at Chapel Hill (Chapel Hill, N.C., United States of America). Germ-free 8 to 12 week old II10^−/−; NF-κBEGFP (129/SvEv; C57BL/6 mixed background) mice were transferred from germ-free isolators and immediately gavaged with 10^9 C. jejuni cfu/mouse (strain 81-176 (Korlath et al., 1985)). Mice were then housed under Specific Pathogen-Free (SPF) conditions and sacrificed at 5 or 12 days. Germ-free II10^−/−; NF-κB^EGFP mice were also gavaged with 10^7 Salmonella typhimurium (S. typhimurium strain CA32) cfu/mouse for 2 days or 10^7 Escherichia coli (E. coli strain NC 101) cfu/mouse for 12 days. Conventionally-derived II10^−/−; NF-κB^EGFP mice were put on an antibiotic cocktail (streptomycin 2 g/L, gentamycin 0.5 g/L, bacteriocin 1 g/L and ciprofloxacin 0.125 g/L) in water for 7 days and antibiotics withdrawn 24 hours prior to infection. The mice were then gavaged with 10^9 C. jejuni cfu/mouse for 14 days. To inhibit mTOR signaling, mice were injected daily intraperitoneally (i.p.) with rapamycin (1.5 mg/kg) (Fisher Scientific, Hampton, N.H., United States of America). At the end of the experiment, mice were euthanized using CO2 intoxication. Colon, mesenteric lymph nodes (MLN) and spleen were collected for further processing RNA, protein or C. jejuni culture on Campylobacter selective blood plates (Remel, Thermo Scientific, Hampton, N.H., United States of America) for 48 h at 37° C. using the GasPak system (Becton Dickinson, Franklin Lakes, N.J., United States of America). […] Colons were fixed in 10% buffered formalin (Fisher Scientific, Hampton, N.H., United States of America) overnight, paraffin-embedded, sectioned, and stained with H&E for histological evaluation. Images were acquired using a DP71 camera and DP Controller 3.1.1.276 (Olympus, Center Valley, Pa., United States of America). Intestinal inflammation was scored by evaluating the degree of lamina propria immune cell infiltration, goblet cell depletion, architectural distortion, as well as crypt hyperplasia, ulceration, and abscesses using a score from 0-4. (Lippert et al., 2009). Cecal and colonic inflammation induced by S. typhimurium was evaluated using a score from 0-13 as described. (Hapfelmeier et al., 2005).
MLN and spleen were aseptically resected. Colon tissue was opened, resected and washed three times in sterile PBS. […] C. jejuni colonies were counted and data presented as colony forming unit (cfu)/g tissue.

IL-1β = assay: ELISA of IL-1β secreted from cultured colon explants and MLN; format: in vivo; settings: rapamycin-treated infected mice vs control
Experimental: as §3

II-12p40 mRNA = assay: Real-time RT-PCR of colonic II-12p40 mRNA; format: in vivo, mice; settings: rapamycin treatment
Experimental: as §1

II-17a mRNA = assay: Real-time RT-PCR of colonic II-17a mRNA; format: in vivo, mice
Experimental: as §1, §2

[1] = colon, rapamycin-treated, C. jejuni-infected mice
[2] = supernatant of cultured colon explants
[3] = wortmannin vs vehicle-treated infected mice

Structure (SMILES)	decrease of ratio of Gr-1+/CD45+ cells in the blood (Gr-1+/CD45+ cells) [%]	attenuation of C. jejuni induced Cxcl2 mRNA accumulation (Cxcl2 mRNA; [1]) [%]	attenuation of C. jejuni induced I1-1β mRNA accumulation (II1β mRNA; [1]) [%]	attenuation of IL-17 production (IL-17; MLN) [%]	reduction of secreted IL-17 (IL-17; [2]) [%]	C. jejuni-induced colonic Tnfα mRNA accumulation (Tnfα mRNA)	reduction of C. jejuni colonic invasion (culture count) (C. jejuni) [%]	reduction of IL-1β production (IL-1β; MLN) [%]	reduction of IL-1β production (IL-1β; [2]) [%]	C. jejuni-induced colonic II-12p40 mRNA accumulation (II-12p40 mRNA)	attenuation of C. jejuni induced II-17a mRNA accumulation (II-17a mRNA; [1]) [%]	block of C. jejuni-induced Cxcl2 mRNA accumulation (Cxcl2 mRNA; [3]) [%]	block of C. jejuni-induced I11β mRNA accumulation (II1β mRNA; [3]) [%]	block of C. jejuni-induced II17a mRNA accumulation (II-17a mRNA; [3]) [%]
CO[C@H]1C[C@@H]2CC[C@@H](C)[C@@](O)(O2)C(=O)C(=O)N2CCCC[C@H]2C(=O)O[C@H]([C@H](C)C[C@@H]2CC[C@@H](O)[C@H](OC)C2)CC(=O)[C@H](C)/C=C(\C)[C@@H](O)[C@@H](OC)C(=O)[C@H](C)C[C@H](C)/C=C/C=C/C=C/1C [rapamycin]	41	75	79	82	94	not significantly inhibited	90	41	59	not significantly inhibited	92			
COC[C@H]1OC(=O)c2coc3c2[C@@]1(C)C1=C(C3=O)[C@@H]2CCC(=O)[C@@]2(C)C[C@H]1OC(C)=O [wortmannin]												77	50	78
